Laboratory results as given in ChEMBL document CHEMBL1145716, “Fagomine isomers and glycosides from Xanthocercis zambesiaca” (J Nat Prod, 1997).

Legend:
Oryza sativa = test: Inhibition of rice alpha-glucosidase at 1000 uM by glucose B-test
Coffea arabica = test: Inhibition of green coffee bean alpha-galactosidase at 1000 uM by spectrophotometry
Rattus norvegicus [1] = species on record: Rattus norvegicus; test: Inhibition of rat liver beta-galactosidase at 1000 uM by spectrophotometry
Rattus norvegicus [2] = species on record: Rattus norvegicus; test: Inhibition of rat liver lysosomal alpha-galactosidase at 1000 uM by spectrophotometry
Rattus norvegicus [3] = species on record: Rattus norvegicus; test: Inhibition of rat liver lysosomal beta-glucosidase at 1000 uM by spectrophotometry
Prunus dulcis = test: Inhibition of almond beta-glucosidase at 1000 uM by spectrophotometry
[4] = biological target: Sucrase-isomaltase, intestinal (Rattus norvegicus) (UniProt P23739); test: Inhibition of Wistar rat intestinal isomaltase at 1000 uM by glucose B-test
Chain of Sucrase-isomaltase, intestinal (Rattus norvegicus) (P23739 1-1013 limits assumed): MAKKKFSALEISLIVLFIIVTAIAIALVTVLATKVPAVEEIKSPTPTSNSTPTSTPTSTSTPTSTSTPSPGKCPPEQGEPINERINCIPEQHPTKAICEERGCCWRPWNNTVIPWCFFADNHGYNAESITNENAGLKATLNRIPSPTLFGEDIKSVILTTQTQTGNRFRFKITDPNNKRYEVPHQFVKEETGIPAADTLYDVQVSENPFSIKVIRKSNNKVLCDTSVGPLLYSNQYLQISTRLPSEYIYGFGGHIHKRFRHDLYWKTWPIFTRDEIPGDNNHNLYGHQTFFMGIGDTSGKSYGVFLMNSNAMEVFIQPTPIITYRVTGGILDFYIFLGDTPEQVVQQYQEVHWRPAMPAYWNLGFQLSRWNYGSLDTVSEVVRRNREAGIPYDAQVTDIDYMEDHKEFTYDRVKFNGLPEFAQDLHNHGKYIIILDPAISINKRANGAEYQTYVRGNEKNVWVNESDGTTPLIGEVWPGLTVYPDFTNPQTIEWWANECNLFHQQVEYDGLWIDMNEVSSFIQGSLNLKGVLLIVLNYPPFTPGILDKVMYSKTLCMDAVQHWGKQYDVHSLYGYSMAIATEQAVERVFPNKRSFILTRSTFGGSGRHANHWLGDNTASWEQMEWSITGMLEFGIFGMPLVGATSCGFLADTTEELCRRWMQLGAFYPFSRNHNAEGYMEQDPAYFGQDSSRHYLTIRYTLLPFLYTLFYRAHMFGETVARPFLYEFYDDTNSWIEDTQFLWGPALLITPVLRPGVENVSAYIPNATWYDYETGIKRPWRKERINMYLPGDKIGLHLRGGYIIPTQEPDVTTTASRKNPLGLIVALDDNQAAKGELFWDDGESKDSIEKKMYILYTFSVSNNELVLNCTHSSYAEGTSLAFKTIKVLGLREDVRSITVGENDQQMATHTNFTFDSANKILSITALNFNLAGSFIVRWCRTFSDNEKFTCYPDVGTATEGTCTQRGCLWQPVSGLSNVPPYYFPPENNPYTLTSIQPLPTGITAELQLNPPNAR
Chain of Sucrase-isomaltase, intestinal (Rattus norvegicus) (P23739 1014-1841 limits assumed): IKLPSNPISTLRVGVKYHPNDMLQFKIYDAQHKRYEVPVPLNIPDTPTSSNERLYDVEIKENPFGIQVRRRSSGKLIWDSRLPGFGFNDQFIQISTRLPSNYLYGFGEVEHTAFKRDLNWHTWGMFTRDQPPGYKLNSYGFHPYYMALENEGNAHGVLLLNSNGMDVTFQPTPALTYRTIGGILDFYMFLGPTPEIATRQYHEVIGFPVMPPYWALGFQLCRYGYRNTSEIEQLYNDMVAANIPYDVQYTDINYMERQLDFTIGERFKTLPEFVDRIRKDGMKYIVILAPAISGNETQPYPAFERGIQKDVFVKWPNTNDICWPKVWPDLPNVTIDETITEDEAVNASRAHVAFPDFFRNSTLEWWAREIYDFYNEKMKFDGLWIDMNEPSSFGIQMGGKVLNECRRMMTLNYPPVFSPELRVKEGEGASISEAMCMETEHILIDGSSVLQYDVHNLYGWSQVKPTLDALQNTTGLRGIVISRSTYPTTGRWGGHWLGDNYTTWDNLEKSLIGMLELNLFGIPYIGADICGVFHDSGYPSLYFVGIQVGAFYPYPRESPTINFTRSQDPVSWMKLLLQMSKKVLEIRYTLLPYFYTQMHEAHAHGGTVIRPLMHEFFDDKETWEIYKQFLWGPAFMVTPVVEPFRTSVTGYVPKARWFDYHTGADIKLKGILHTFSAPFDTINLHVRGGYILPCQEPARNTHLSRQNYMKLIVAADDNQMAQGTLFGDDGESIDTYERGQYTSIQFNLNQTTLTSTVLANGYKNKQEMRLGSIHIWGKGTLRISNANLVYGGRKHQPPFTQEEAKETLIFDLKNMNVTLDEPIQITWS

Rattus norvegicus [5] = species on record: Rattus norvegicus; test: Inhibition of Wistar rat intestinal cellobiase at 1000 uM by glucose B-test
Bos taurus = species on record: Bos taurus; test: Inhibition of bovine liver beta-galactosidase at 1000 uM by spectrophotometry
[6] = Inhibition of rice alpha-glucosidase by glucose B-test; design: species or system Oryza sativa
[7] = Inhibition of green coffee bean alpha-galactosidase by spectrophotometry; design: species or system Coffea arabica
[8] = Inhibition of rat liver beta-galactosidase by spectrophotometry
[9] = biological target: Sucrase-isomaltase, intestinal (Rattus norvegicus, UniProt P23739); test: Inhibition of Wistar rat intestinal isomaltase by glucose B-test
Chain of Sucrase-isomaltase, intestinal (P23739 1-1013 limits assumed): as the sequence (P23739 1-1013 limits assumed) above
Chain of Sucrase-isomaltase, intestinal (P23739 1014-1841 limits assumed): as the sequence (P23739 1014-1841 limits assumed) above

[10] = Inhibition of bovine liver beta-galactosidase by spectrophotometry; design: species or system Bos taurus
[11] = Inhibition of rat liver lysosomal beta-glucosidase by spectrophotometry
[12] = Inhibition of almond beta-glucosidase by spectrophotometry; design: species or system Prunus dulcis
[13] = Inhibition of Wistar rat intestinal cellobiase by glucose B-test

Compound | inhibition (Oryza sativa) [%] | inhibition (Coffea arabica) [%] | inhibition (Rattus norvegicus [1]) [%] | inhibition (Rattus norvegicus [2]) [%] | inhibition (Rattus norvegicus [3]) [%] | inhibition (Prunus dulcis) [%] | inhibition [4] [%] | inhibition (Rattus norvegicus [5]) [%] | inhibition (Bos taurus) [%] | IC50 [6] [µM] | IC50 [7] [µM] | IC50 [8] [µM] | IC50 [9] [µM] | IC50 [10] [nM] | IC50 [11] [µM] | IC50 [12] [µM] | IC50 [13] [µM]
OC[C@H]1NCC[C@H](O)[C@H]1O | < 50 | < 50 | < 50 | < 50 | < 50 | < 50 | < 50 | < 50 | < 50 | – | – | – | – | – | – | – | –
OC[C@H]1NCC[C@@H](O)[C@@H]1O [FAGOMINE] | – | – | – | < 50 | < 50 | < 50 | – | < 50 | – | 320 | 56 | 15 | 46 | – | – | – | –
OC[C@H]1NCC[C@H](O)[C@@H]1O | – | < 50 | – | < 50 | – | – | – | – | – | 120 | – | 4 | 6 | 3000 | 740 | 120 | 100

Results, then the molecule that gave them:

inhibition (Oryza sativa) [%] | inhibition (Coffea arabica) [%] | inhibition (Rattus norvegicus [1]) [%] | inhibition (Rattus norvegicus [2]) [%] | inhibition (Rattus norvegicus [3]) [%] | inhibition (Prunus dulcis) [%] | inhibition [4] [%] | inhibition (Rattus norvegicus [5]) [%] | inhibition (Bos taurus) [%] | IC50 [6] [µM] | IC50 [7] [µM] | IC50 [8] [µM] | IC50 [9] [µM] | IC50 [10] [nM] | IC50 [11] [µM] | IC50 [12] [µM] | IC50 [13] [µM] | Compound
< 50 | < 50 | < 50 | < 50 | < 50 | < 50 | < 50 | < 50 | < 50 | – | – | – | – | – | – | – | – | OC[C@H]1NCC[C@@H](O)[C@@H]1O[C@@H]1O[C@H](CO)[C@@H](O)[C@H](O)[C@H]1O
< 50 | < 50 | < 50 | < 50 | < 50 | < 50 | < 50 | < 50 | < 50 | – | – | – | – | – | – | – | – | OC[C@H]1NCC[C@@H](O[C@@H]2O[C@H](CO)[C@@H](O)[C@H](O)[C@H]2O)[C@@H]1O
